Results reported in patent US20240384226A1, “RHODOPSEUDOMONAS PALUSTRIS TIE-1 STRAINS AND METHODS FOR BIOPLASTIC PRODUCTION” (Washington University, priority 2023, published 2024).
In brackets after ≈: the same amount, converted by molar mass.

Test system: TIE-1
Assay: minimum inhibitory concentration (MIC) of antibiotics for TIE-1
Assay type: cell-based, Rhodopseudomonas palustris TIE-1
Details: resistance of TIE-1 to selection antibiotics; for MIC: Rhodopseudomonas palustris

O=C(N[C@H](CO)[C@H](O)c1ccc([N+](=O)[O-])cc1)C(Cl)Cl [chloramphenicol]
MIC: 100 mg/L (≈ 309 µM)

NC[C@H]1O[C@H](O[C@H]2[C@H](O)[C@@H](O[C@H]3O[C@H](CO)[C@@H](O)[C@H](N)[C@H]3O)[C@H](N)C[C@@H]2N)[C@H](O)[C@@H](O)[C@@H]1O [kanamycin]
MIC: 50 mg/L (≈ 103 µM)

gentamicin
minimum inhibitory concentration (MIC): 200 mg/L
